Assay results reported in PubChem BioAssay AID1259411 (Chemical Carcinogenesis Research Information System (CCRIS), 2018).
Calls of active or inactive are those of the source. How the calls were made is not given here.

Tested on: rodent carcinogenicity bioassays, tumor incidence
Experiment: CCRIS carcinogenicity studies
Details: Dose: 0, Dose: 0
Excerpt: The CCRIS database contains chemical records with carcinogenicity, mutagenicity, tumor promotion, and tumor inhibition test results. It was developed by the National Cancer Institute (NCI). Data are derived from studies cited in primary journals, current awareness tools, NCI reports, and other sources. Test results have been reviewed by experts in carcinogenesis and mutagenesis.
CCRIS provides historical information from the years 1985 - 2011. It is no longer updated.
This is an archive assay for CCRIS carcinogenicity studies.

Q: What does the source list for `C=CC(=O)OCC`?
A: carcinogen call (Species: MOUSE, Strain/Sex: B6C3F1/FEMALE, Route: GAVAGE, 100, 200 MG/KG IN CORN OIL FOR 103 WK, 100, 200 MG/KG IN CORN OIL FOR 103 WK, Tumor Site: Type of Lesion: FORESTOMACH: SQUAMOUS CELL PAPILLOMA OR CARCINOMA): active; positive; carcinogen call (Species: MOUSE, Strain/Sex: B6C3F1/FEMALE, Route: INHALATION, 5 PPM 6 HR/D 5 D/WK FOR 24 MO (STUDY DURATION: 24 MO)): inactive; negative; carcinogen call (Species: MOUSE, Strain/Sex: B6C3F1/FEMALE, Route: INHALATION, 25, 75 PPM 6 HR/D 5 D/WK FOR 27 MO (STUDY DURATION: 27 MO), 25, 75 PPM 6 HR/D 5 D/WK FOR 27 MO (STUDY DURATION: 27 MO)): inactive; negative; carcinogen call (Species: MOUSE, Strain/Sex: B6C3F1/FEMALE, Route: INHALATION, 225 PPM 6 HR/D 5 D/WK FOR 6 MO (STUDY DURATION: 27 MO)): inactive; negative; carcinogen call (Species: MOUSE, Strain/Sex: B6C3F1/MALE, Route: GAVAGE, 100, 200 MG/KG IN CORN OIL FOR 103 WK, 100, 200 MG/KG IN CORN OIL FOR 103 WK, Tumor Site: Type of Lesion: FORESTOMACH: SQUAMOUS CELL PAPILLOMA, SQUAMOUS CELL CARCINOMA): active; positive; carcinogen call (Species: MOUSE, Strain/Sex: B6C3F1/MALE, Route: INHALATION, 5 PPM 6 HR/D 5 D/WK FOR 24 MO (STUDY DURATION: 24 MO)): inactive; negative; carcinogen call (Species: MOUSE, Strain/Sex: B6C3F1/MALE, Route: INHALATION, 25, 75 PPM 6 HR/D 5 D/WK FOR 27 MO (STUDY DURATION: 27 MO), 25, 75 PPM 6 HR/D 5 D/WK FOR 27 MO (STUDY DURATION: 27 MO)): inactive; negative; carcinogen call (Species: MOUSE, Strain/Sex: B6C3F1/MALE, Route: INHALATION, 225 PPM 6 HR/D 5 D/WK FOR 6 MO (STUDY DURATION: 27 MO)): inactive; negative; carcinogen call (Species: MOUSE, Strain/Sex: C3H/MALE, Route: DERMAL, 23 MG IN 25 µL ACETONE 3/WK FOR LIFESPAN (STUDY DURATION: LIFESPAN)): inactive; negative; carcinogen call (Species: MOUSE, Strain/Sex: TGAC/FEMALE, Route: DERMAL, 60, 300, 600 UMOL IN 200 µL ACETONE 3/WK FOR 20 WK (STUDY DURATION: 20 WK), 60, 300, 600 UMOL IN 200 µL ACETONE 3/WK FOR 20 WK (STUDY DURATION: 20 WK)): inactive; negative; carcinogen call (Species: RAT, Strain/Sex: F344/FEMALE, Route: GAVAGE, 100, 200 MG/KG IN CORN OIL FOR 103 WK, 100, 200 MG/KG IN CORN OIL FOR 103 WK, Tumor Site: Type of Lesion: FORESTOMACH: SQUAMOUS CELL PAPILLOMA, SQUAMOUS CELL PAPILLOMA OR CARCINOMA): active; positive; carcinogen call (Species: RAT, Strain/Sex: F344/FEMALE, Route: INHALATION, 5 PPM 6 HR/D 5 D/WK FOR 24 MO (STUDY DURATION: 24 MO)): inactive; negative; carcinogen call (Species: RAT, Strain/Sex: F344/FEMALE, Route: INHALATION, 25, 75 PPM 6 HR/D 5 D/WK FOR 27 MO (STUDY DURATION: 27 MO), 25, 75 PPM 6 HR/D 5 D/WK FOR 27 MO (STUDY DURATION: 27 MO)): inactive; negative; carcinogen call (Species: RAT, Strain/Sex: F344/FEMALE, Route: INHALATION, 225 PPM 6 HR/D 5 D/WK FOR 6 MO (STUDY DURATION: 27 MO)): inactive; negative; carcinogen call (Species: RAT, Strain/Sex: F344/MALE, Route: GAVAGE, 100, 200 MG/KG IN CORN OIL FOR 103 WK, 100, 200 MG/KG IN CORN OIL FOR 103 WK, Tumor Site: Type of Lesion: FORESTOMACH: SQUAMOUS CELL PAPILLOMA, SQUAMOUS CELL CARCINOMA): active; positive; carcinogen call (Species: RAT, Strain/Sex: F344/MALE, Route: INHALATION, 5 PPM 6 HR/D 5 D/WK FOR 24 MO (STUDY DURATION: 24 MO)): inactive; negative; carcinogen call (Species: RAT, Strain/Sex: F344/MALE, Route: INHALATION, 25, 75 PPM 6 HR/D 5 D/WK FOR 27 MO (STUDY DURATION: 27 MO), 25, 75 PPM 6 HR/D 5 D/WK FOR 27 MO (STUDY DURATION: 27 MO)): inactive; negative; carcinogen call (Species: RAT, Strain/Sex: F344/MALE, Route: INHALATION, 225 PPM 6 HR/D 5 D/WK FOR 6 MO (STUDY DURATION: 27 MO)): inactive; negative

Q: How did the carcinogen call (Species: MOUSE, Strain/Sex: B6C3F1/FEMALE, Route: GAVAGE, 300, 600 MG/KG IN CORN OIL 5 D/WK FOR 103 WK, 300, 600 MG/KG IN CORN OIL 5 D/WK FOR 103 WK, Tumor Site: Type of Lesion: LIVER: HEPATOCELLULAR ADENOMA, HEPATOCELLULAR CARCINOMA) turn out when `Clc1ccc(Cl)cc1` was run?
A: Its carcinogen call is “active; positive”.

Q: What about the carcinogen call (Species: MOUSE, Strain/Sex: B6C3F1/MALE, Route: GAVAGE, 300, 600 MG/KG IN CORN OIL 5 D/WK FOR 103 WK, 300, 600 MG/KG IN CORN OIL 5 D/WK FOR 103 WK, Tumor Site: Type of Lesion: LIVER: HEPATOCELLULAR ADENOMA, HEPATOCELLULAR CARCINOMA) of the same compound?
A: Its carcinogen call is “active; positive”.

Q: What about the carcinogen call (Species: MOUSE, Strain/Sex: CRJ:BDF1/FEMALE, Route: INHALATION, 20, 75, 300 PPM 6 HR/D, 5 D/WK FOR 2 YRS (STUDY DURATION: 2 YRS), 20, 75, 300 PPM 6 HR/D, 5 D/WK FOR 2 YRS (STUDY DURATION: 2 YRS), Tumor Site: Type of Lesion: LIVER: HEPATOCELLULAR ADENOMA, LIVER: HEPATOCELLULAR CARCINOMA, LIVER: HEPATOBLASTOMA, Tumor Site: Type of Lesion: LIVER: HEPATOCELLULAR ADENOMA, LIVER: HEPATOCELLULAR CARCINOMA, LIVER: HEPATOBLASTOMA) of the same compound?
A: Its carcinogen call is “active; positive”.

Q: And the carcinogen call (Species: MOUSE, Strain/Sex: CRJ:BDF1/MALE, Route: INHALATION, 20, 75, 300 PPM 6 HR/D, 5 D/WK FOR 2 YRS (STUDY DURATION: 2 YRS), 20, 75, 300 PPM 6 HR/D, 5 D/WK FOR 2 YRS (STUDY DURATION: 2 YRS), Tumor Site: Type of Lesion: LIVER: HEPATOCELLULAR CARCINOMA, LIVER: HEPATOBLASTOMA, HISTIOCYTIC SARCOMA, Tumor Site: Type of Lesion: LIVER: HEPATOCELLULAR CARCINOMA, LIVER: HEPATOBLASTOMA, HISTIOCYTIC SARCOMA)?
A: The carcinogen call was “active; positive”.

Q: And the carcinogen call (Species: RAT, Strain/Sex: F344/FEMALE, Route: GAVAGE, 300, 600 MG/KG IN CORN OIL 5 D/WK FOR 103 WK, 300, 600 MG/KG IN CORN OIL 5 D/WK FOR 103 WK)?
A: The carcinogen call was “inactive; negative”.

Q: And the carcinogen call (Species: RAT, Strain/Sex: F344/MALE, FEMALE, Route: INHALATION, 20, 75, 300 PPM 6 HR/D, 5 D/WK FOR 2 YRS (STUDY DURATION: 2 YRS), 20, 75, 300 PPM 6 HR/D, 5 D/WK FOR 2 YRS (STUDY DURATION: 2 YRS))?
A: The carcinogen call was “inactive; negative”.

Q: And the carcinogen call (Species: RAT, Strain/Sex: F344/MALE, Route: GAVAGE, 150, 300 MG/KG IN CORN OIL 5 D/WK FOR 103 WK, 150, 300 MG/KG IN CORN OIL 5 D/WK FOR 103 WK, Tumor Site: Type of Lesion: KIDNEY: TUBULAR CELL ADENOCARCINOMA, TUBULAR CELL ADENOMA OR ADENOCARCINOMA)?
A: The carcinogen call was “active; positive”.

Q: Which carcinogen call (Species: MOUSE, Strain/Sex: SWISS/FEMALE, Route: DERMAL, 41 UG IN ACETONE (0.2%) 2/WK FOR 65 WK FOR A TOTAL DOSE OF 0, 5.3 MG (STUDY DURATION: 80 WK), 41 UG IN ACETONE (0.2%) 2/WK FOR 65 WK FOR A TOTAL DOSE OF 0, 5.3 MG (STUDY DURATION: 80 WK), Tumor Site: Type of Lesion: SKIN: CARCINOMA, SKIN: PAPILLOMA) does the source give for `Cc1c2c(c(C)c3c1ccc1ccccc13)CCCC2` here?
A: The carcinogen call was “active; positive”.

Q: Which results are given for `COc1cc(OC)nc(NC(=O)NS(=O)(=O)c2c(Cl)nc3ccccn23)n1`?
A: carcinogen call (Species: Mouse, Strain/Sex: CD-1/Female (50/Group), Route: Oral, 86.8, 870.0, 10,303.5 mg/kg/day of 99.6-99.8% imazosulfuron in diet for 18 mo, study duration 18 mo, 86.8, 870.0, 10,303.5 mg/kg/day of 99.6-99.8% imazosulfuron in diet for 18 mo, study duration 18 mo): inactive; negative; carcinogen call (Species: Mouse, Strain/Sex: CD-1/Male (50/Group), Route: Oral, 72.7, 741.3, 7848.1 mg/kg/day of 99.6-99.8% imazosulfuron in diet for 18 mo, study duration 18 mo, 72.7, 741.3, 7848.1 mg/kg/day of 99.6-99.8% imazosulfuron in diet for 18 mo, study duration 18 mo): inactive; negative; carcinogen call (Species: Rat, Strain/Sex: CD (Sprague-Dawley derived)/Female (50/Group), Route: Oral, 12.94, 132.46, 1554.35 mg/kg/day of 99.6-99.8% imazosulfuron in diet for 24 mo, study duration 24 mo, 12.94, 132.46, 1554.35 mg/kg/day of 99.6-99.8% imazosulfuron in diet for 24 mo, study duration 24 mo): inactive; negative; carcinogen call (Species: Rat, Strain/Sex: CD (Sprague-Dawley derived)/Male (50/Group), Route: Oral, 10.39, 106.10, 1123.99 mg/kg/day of 99.6-99.8% imazosulfuron in diet for 24 mo, study duration 24 mo, 10.39, 106.10, 1123.99 mg/kg/day of 99.6-99.8% imazosulfuron in diet for 24 mo, study duration 24 mo): inactive; negative
